Results reported in patent US20050148553A1, “Use of tigecycline, alone, or in combination with rifampin to treat osteomyelitis and/or septic arthritis” (priority 2003, published 2005).

Test: Whole body autoradiography after 30-minute 3 mg/kg IV infusion of [^14C]-tigecycline
Format: in vivo, Sprague-Dawley rats
Description: Male Sprague-Dawley and Long-Evans rats were obtained from Charles River Breeding Laboratories, Raleigh, N.C., and were quarantined for at least one week prior to the start of the study. […] The dosing solution was diluted and radioassayed directly in Ultima Gold scintillation counting cocktail (Packard Inc.). […] All pumps were calibrated prior to the administration of the compound. Rats were anesthetized with isoflurane prior to cardiac puncture exsanguination at the prescribed times after dosing. […] Control whole blood was collected from male Sprague-Dawley rats into tubes containing sodium heparin. Pooled blood was used to prepare the calibration standards and quality control samples. The standards were used to construct the standard curve for the quantification of radiolabeled drug distribution in tissues of whole blood cryosections. The quality controls, which were embedded in the same CMC block with each rat, were used for assessing intra- and inter-section variation in the thickness of rat whole-body cryosections. […] Immediately following euthanasia, each rat was totally immersed in a bath of hexane and dry ice (−75° C.) until frozen. Each carcass was dried and stored at −30° C. until embedded. […] Each frozen rat was sagitally sectioned at −20° C. A sufficient number of sections were collected to ensure sampling of all tissues of interest. The sections were dehydrated overnight in a cryochamber and then rapidly transferred to a dessicator containing CaSO4 to prevent condensation of atmospheric moisture while equilibrating to room temperature. The sections were mounted on cardboard and labeled with [^14C]-labeled black ink with a unique identification number. […] A small piece of Scotch tape was placed over the dried radioactive ink to prevent the contamination of the storage phosphor screens. Phosphor imaging plates, BAS-SR 2025 (Fuji Photo Film Co., Japan) were exposed to bright visible light for 20 minutes using an IP eraser (Raytest, USA Inc., New Castle, Del.) to remove background radiation. Sections and calibration blood standards were concurrently placed in direct contact with Ips and exposed for 7 days. All sections were stored at room temperature in a lead shielding box to minimize background levels. Phosphor images were generated using a Fujifilm BAS-5000 Bio-Imaging Analyzer and quantitated by MCID M2 Software, version 3.2 (Imaging Research Inc., St. Catherines, Ontario, Canada). The STDs and QCs were analyzed using the circular sampling tool in the MCID software program. Areas of interest in whole-body sections were manually outlined with the regional sampling tool to generate count data. Radioactive concentrations in select tissues were determined by digital analysis of the resulting autoradiograms on the basis of a calibration curve. […] The linear regression curve was then used to determine the concentration of unknown radioactivity of study samples. […] Blood samples were combusted using a Model 307 sample oxidizer (Packard Instrument Company). […] Research Triangle Park, N.C.), which applies a model-independent approach and standard procedures as described in Gibaldi and Perrier. Gibaldi, Pharmacokinetics, 1982. […] For IV infusion dosing, C30 min was the concentration at 30 minutes, the first sampling time point. The maximum plasma concentration (Cmax) and the corresponding time of peak concentration following IV administration were obtained directly by numerical inspection from the individual concentration-time data. The terminal half-life was calculated by the ratio of ln2/λz where λz is derived from the terminal slope of the concentration time curve. The area under the plasma concentration versus time curve from zero to infinity was calculated using the trapezoidal rule, where Clast is the last measurable plasma concentration. […]

## CN(C)c1cc(NC(=O)CNC(C)(C)C)c(O)c2c1C[C@H]1C[C@H]3[C@H](N(C)C)C(O)=C(C(N)=O)C(=O)[C@@]3(O)C(O)=C1C2=O [[^14C]-Tigecycline]
Liver, 24 Hrs
  Mean concentration of total radioactivity: 160 ng equiv./g
  Tissue:Plasma Ratio: 10.8
Liver, 72 Hrs
  Mean concentration of total radioactivity: 22.7 ng equiv./g
  Tissue:Plasma Ratio: 5.26
Liver, 168 Hrs
  Mean concentration of total radioactivity: 13.3 ng equiv./g
Liver, 336 Hrs
  Mean concentration of total radioactivity: <5.10 ng equiv./g
Liver, first AUC column
  AUC: 52676 Ng eq hr/g
Lung, 0.5 Hrs
  Mean concentration of total radioactivity: 2981 ng equiv./g
  Tissue:Plasma Ratio: 3.33
Lung, 8.5 Hrs
  Mean concentration of total radioactivity: 496 ng equiv./g
  Tissue:Plasma Ratio: 0.984
Lung, 24 Hrs
  Mean concentration of total radioactivity: 73.1 ng equiv./g
  Tissue:Plasma Ratio: 4.96
Lung, 72 Hrs
  Mean concentration of total radioactivity: 13.5 ng equiv./g
  Tissue:Plasma Ratio: 3.13
Lung, 168 Hrs
  Mean concentration of total radioactivity: <5.10 ng equiv./g
Lung, 336 Hrs
  Mean concentration of total radioactivity: <5.10 ng equiv./g
Lung, first AUC column
  AUC: 21263 Ng eq hr/g
Lymph Node
  AUC: 37010 Ng eq hr/g
Lymph Node, 0.5 Hrs
  Mean concentration of total radioactivity: 3473 ng equiv./g
  Tissue:Plasma Ratio: 3.88
Lymph Node, 8.5 Hrs
  Mean concentration of total radioactivity: 1276 ng equiv./g
  Tissue:Plasma Ratio: 2.53
Lymph Node, 24 Hrs
  Mean concentration of total radioactivity: 180 ng equiv./g
  Tissue:Plasma Ratio: 12.2
Lymph Node, 72 Hrs
  Mean concentration of total radioactivity: 29.1 ng equiv./g
  Tissue:Plasma Ratio: 6.75
Lymph Node, 168 Hrs
  Mean concentration of total radioactivity: <5.10 ng equiv./g
Lymph Node, 336 Hrs
  Mean concentration of total radioactivity: <5.10 ng equiv./g
Lymph Node, first AUC column
  AUC: 36478 Ng eq hr/g
Muscle
  AUC: 34910 Ng eq hr/g
Muscle, 0.5 Hrs
  Mean concentration of total radioactivity: 2260 ng equiv./g
  Tissue:Plasma Ratio: 2.52
Muscle, 8.5 Hrs
  Mean concentration of total radioactivity: 1863 ng equiv./g
  Tissue:Plasma Ratio: 3.70
Muscle, 24 Hrs
  Mean concentration of total radioactivity: 85.8 ng equiv./g
  Tissue:Plasma Ratio: 5.801
Muscle, 72 Hrs
  Mean concentration of total radioactivity: 6.24 ng equiv./g
  Tissue:Plasma Ratio: 1.45
Muscle, 168 Hrs
  Mean concentration of total radioactivity: <5.10 ng equiv./g
Muscle, 336 Hrs
  Mean concentration of total radioactivity: <5.10 ng equiv./g
Muscle, first AUC column
  AUC: 34833 Ng eq hr/g
Pancreas
  AUC: 33014 Ng eq hr/g
Pancreas, 0.5 Hrs
  Mean concentration of total radioactivity: 4437 ng equiv./g
  Tissue:Plasma Ratio: 4.96
Pancreas, 8.5 Hrs
  Mean concentration of total radioactivity: 971 ng equiv./g
  Tissue:Plasma Ratio: 1.93
Pancreas, 24 Hrs
  Mean concentration of total radioactivity: 70.0 ng equiv./g
  Tissue:Plasma Ratio: 4.75
Pancreas, 72 Hrs
  Mean concentration of total radioactivity: 7.41 ng equiv./g
  Tissue:Plasma Ratio: 1.72
Pancreas, 168 Hrs
  Mean concentration of total radioactivity: <5.10 ng equiv./g
Pancreas, 336 Hrs
  Mean concentration of total radioactivity: <5.10 ng equiv./g
Pancreas, first AUC column
  AUC: 32908 Ng eq hr/g
Pituitary
  AUC: 45164 Ng eq hr/g
Pituitary, 0.5 Hrs
  Mean concentration of total radioactivity: 3693 ng equiv./g
  Tissue:Plasma Ratio: 4.13
Pituitary, 8.5 Hrs
  Mean concentration of total radioactivity: 2014 ng equiv./g
  Tissue:Plasma Ratio: 4.00
Pituitary, 24 Hrs
  Tissue:Plasma Ratio: 9.79
Pituitary, 72 Hrs
  Tissue:Plasma Ratio: 4.36
Pituitary, first AUC column
  AUC: 44882 Ng eq hr/g
Plasma
  AUC: 10652 Ng eq hr/g
Plasma, 0.5 Hrs
  Tissue:Plasma Ratio: 1.00
Plasma, 8.5 Hrs
  Tissue:Plasma Ratio: 1.00
Plasma, 24 Hrs
  Tissue:Plasma Ratio: 1.00
Plasma, 72 Hrs
  Tissue:Plasma Ratio: 1.00
Plasma, first AUC column
  AUC: 10643 Ng eq hr/g
Salivary Gland
  AUC: 110979 Ng eq hr/g
Salivary Gland, 0.5 Hrs
  Tissue:Plasma Ratio: 6.45
Salivary Gland, 8.5 Hrs
  Tissue:Plasma Ratio: 12.53
Salivary Gland, 24 Hrs
  Tissue:Plasma Ratio: 20.3
Salivary Gland, 72 Hrs
  Tissue:Plasma Ratio: 7.32
Salivary Gland, first AUC column
  AUC: 110558 Ng eq hr/g
Skin
  AUC: 36471 Ng eq hr/g
Skin, 0.5 Hrs
  Tissue:Plasma Ratio: 2.15
Skin, 8.5 Hrs
  Tissue:Plasma Ratio: 1.14
Skin, 24 Hrs
  Tissue:Plasma Ratio: 16.9
Skin, 72 Hrs
  Tissue:Plasma Ratio: 19.3
Skin, first AUC column
  AUC: 31819 Ng eq hr/g
Spleen
  AUC: 70522 Ng eq hr/g
  Cmax: 6627 Ng equiv/g
Spleen, 0.5 Hrs
  Tissue:Plasma Ratio: 7.40
Spleen, 8.5 Hrs
  Tissue:Plasma Ratio: 3.36
Spleen, 24 Hrs
  Tissue:Plasma Ratio: 32.3
Spleen, 72 Hrs
  Tissue:Plasma Ratio: 16.7
Spleen, first AUC column
  AUC: 69638 Ng eq hr/g
Testes, 0.5 Hrs
  Tissue:Plasma Ratio: 0.388
Testes, 8.5 Hrs
  Tissue:Plasma Ratio: 0.716
Testes, 24 Hrs
  Tissue:Plasma Ratio: 8.08
Testes, 72 Hrs
  Tissue:Plasma Ratio: 3.80
Testes, first AUC column
  AUC: 9975 Ng eq hr/g
Testes, second AUC column
  AUC: 10323 Ng eq hr/g
Testes, second AUC column, listed as [^14C]-tigecycline
  AUC: 10303 Ng eq hr/g
Thymus
  AUC: 35430 Ng eq hr/g
Thymus, 0.5 Hrs
  Tissue:Plasma Ratio: 2.82
Thymus, 8.5 Hrs
  Tissue:Plasma Ratio: 3.16
Thymus, 24 Hrs
  Tissue:Plasma Ratio: 10.7
Thymus, 72 Hrs
  Tissue:Plasma Ratio: 3.55
Thymus, first AUC column
  AUC: 35204 Ng eq hr/g
Thyroid
  AUC: 330047 Ng eq hr/g
Thyroid, 0.5 Hrs
  Tissue:Plasma Ratio: 3.34
Thyroid, 8.5 Hrs
  Tissue:Plasma Ratio: 3.50
Thyroid, 24 Hrs
  Tissue:Plasma Ratio: 24.0
Thyroid, 72 Hrs
  Tissue:Plasma Ratio: 56.0
Thyroid, 72 Hrs, listed as [^14C]-tigecycline
  Tissue:Plasma Ratio: 56
Thyroid, first AUC column
  AUC: 113022 Ng eq hr/g
lung
  AUC: 21523 Ng eq hr/g
male, Sprague-Dawley, rat, in vivo
  elimination half-lives across tissues: 5 to 217 h
